Measurements taken from patent publication US11185076B2 (priority 2017, dated 2021).
Read-outs that look alike come from different tables or passages of the source.

Legend:
Rice Streak Virus (RSV) = assay: Control test on rice streak virus (RSV) (field trial of nursery box application); type: in vivo, rice stripe virus; conditions: for phytotoxicity: rice (cultivar: Hinohikari)
Experimental: Rice seedlings (cultivar: Hinohikari) were grown in a greenhouse according to an ordinary procedure and transplanted to an open paddy field. Granules containing 4% of tolprocarb (a) and granules containing 6% of dinotefuran (insecticidal ingredient) formulated according to Formulation Example 2 were respectively treated or were treated in combination in 50 g per box in a nursery box on the day of transplantation. 35 days after transplantation, larvae of RSV-carrying small brown planthopper were released for one week to inoculate rice plants by sucking. At 79 days and 99 days after transplantation, the presence or absence of the unshooting of head was examined.

[1] = tested on: cucumber mosaic virus (CMV); conditions: for Number of CMV Infected Plants: Acute wilt / Number of CMV Infected Plants: Mosaic / Number of CMV Infected Plants: No Infection: 5 plants; for Number of CMV Infected Plants: Acute wilt / Number of CMV Infected Plants: Mosaic / Number of CMV Infected Plants: No Infection / Control value / Disease Severity index: drench 3 days before inoculation, g ai/10a: (a) 90, (b) 150, dinotefuran 120, thiamethoxam 60, (h) 250, mixtures 90 + 120 and 150 + 60; for phytotoxicity: cucumber (cultivar: Sagami-hanjiro); for control effect on cucumber mosaic virus (CMV) (in words): treatment on 3 day before inoculation
[2] = tested on: Chinese cabbage soft rot bacteria (Erwinia carotovora subsp. carotovora); assay: Control test on Chinese cabbage soft rot (soil incorporation test); type: in vivo; conditions: for phytotoxicity: Chinese cabbage plant (cultivar: Muso); for control effect on the Chinese cabbage soft rot (in words): whole soil incorporation at the time of planting
Text: Granules containing 3% of tolprocarb (a) (trade name; Sanblas (registered trademark) granules (manufactured by Mitsui Chemical Agro Co., Ltd.)), granules containing 5% of pyroquilon (b) (trade name; Coratop (registered trademark) granules (manufactured by Mitsui Chemical Agro Co., Ltd.)), granules containing 1.5% of simeconazole (fungicidal component) (trade name; Mongalite (registered trademark) granules (manufactured by Mitsui Chemical Agro Co., Ltd.)) and flowable containing 20% of penthiopyrad (fungicidal component) were respectively incorporated or were incorporated in combination into a pot soil in a predetermined amount. Then, the Chinese cabbage was planted in the pot soil. At 14 days after chemical agent treatment, the Chinese cabbage soft rot was inoculated. […] Thereafter, the inoculated plantes were put in a 25° C. greenhouse to promote infection for 2 days, and the control effect was examined. The infection was examined by the degree of infection, and the disease severity index was calculated based on the degree of infection. The control value was calculated from the disease severity index.
Severity index=((the number of leaves of infection index 0×0)+(the number of leaves of infection index 1×1)+(the number of leaves of infection index 2×2)+(the number of leaves of infection index 3×3)/(the number of leaves examined×3)×100
(§1) The synergistic effect was calculated from the following Colby's equation. Synergistic effect (expected value)=(control value of compound A+control value of compound B)−(control value of compound A×control value of compound B)/100
(§2) When the control value exceeded the expected value in the case of mixing the compounds and applying the mixed product, it was determined that there was a synergistic effect.

[3] = tested on: cucumber mosaic virus (CMV); conditions: for Control value / Disease Severity index / Number of CMV Infected Leaves: Acute wilt / Number of CMV Infected Leaves: Mosaic / Number of CMV Infected Leaves: No Infection: drench 1 day before inoculation; for Number of CMV Infected Leaves: Acute wilt / Number of CMV Infected Leaves: Mosaic / Number of CMV Infected Leaves: No Infection: 3 checked; for phytotoxicity: cucumber (cultivar: Sagami-hanjiro)
[4] = tested on: tomato yellow leaf curl disease (TYLCV); assay: Control test on tomato yellow leaf curl disease (TYLCV) (soil drench test); type: in vivo, tomato yellow leaf curl virus; conditions: for phytotoxicity: tomato (cultivar: Sekai-ichi); for control effect on tomato yellow leaf curl disease (TYLCV) (in words): treatment on 7 day before inoculation
Experimental: Granules containing 3% of tolprocarb (a) (trade name; Sanblas (registered trademark) granules (manufactured by Mitsui Chemical Agro Co., Ltd.)), granules containing 5% of pyroquilon (b) (trade name; Coratop (registered trademark) granules (manufactured by Syngenta Japan Ltd.)) and granules containing 1% of dinotefran (trade name; Starkle (registered trademark) granules (manufactured by Mitsui Chemicals Agro Co., Ltd.)) were respectively treated or were treated in combination to plant foot of tomato in a predetermined amount. Seven days after chemical agent treatment, the plants were inoculated by sucking of one adult of TYLCV-carrying tobacco whitefly biotype Q per plant for 3 days. Thereafter, the inoculated plants were put in the greenhouse to promote infection, and the control effect was examined after the infection. The infection was examined by the degree of infection, and the disease severity index was calculated based on the degree of infection. The control value was calculated from the disease severity index.
1: observation of initial infection (delayed infection)
2: observation of infection Severity index=((the number of plants of infection index 0×0)+(the number of plants of infection index 1×1)+(the number of plants of infection index 2×2)/(the number of plants examined×2))×100
as §1, §2

[5] = tested on: tomato powdery mildew (Oidium neolycopersici); assay: Control test on tomato powdery mildew (soil incorporation test); type: in vivo
Experimental: A tomato powdery mildew control test was performed in a greenhouse. A plastic pots having a diameter of 20 cm were used for the test. As test chemical agents, granules containing 3% of tolprocarb (compound (a)) (trade name; Sanblas (registered trademark) granules (Mitsui Chemical Agro Inc.)) commercially available and granules containing 5% of pyroquilon (compound (b)) (trade name: Coratop (registered trademark) granules (manufactured by Syngenta Japan Co., Ltd.)) were mixed to soil on the entire surface of the pot in an amount equivalent to 3 kg/10a. Also, the simplified emulsifiable concentrate E(c) containing the compound (c) was suspended in the distilled water, and was irrigated onto the entire surface of the pot to be incorporated. As the comparative example, granules (trade name: Oryzemate (registered trademark) granules (Meiji Seika Pharma Co., Ltd.)) containing 8% of probenazole (comparative compound (h)) was mixed to soil on the entire surface of the pot in an amount equivalent to 3 kg/10a. Tomato (cultivar: Ohgata-fukuju) grown up to 4-leaf stage of true leaf was planted in a plastic pots having a diameter of 20 cm and were treated with chemical agents. Plants were grown in a glass greenhouse and naturally occurring tomato powdery mildew (Oidium neolycopersici) was examined one month after chemical agent treatment. In the examination, an infection index of six leaves per pot was examined to calculate disease severity index. The control value was calculated from the disease severity index.
The criteria for the degree of infection are as follows.
1: lesion area rate of less than 5%
2: lesion area rate from 5% to 25%
3: lesion area rate from 25% to 50%
The severity index was calculated from the following equation. Severity index=((the number of compound leaves of infection index 0×0)+(the number of compound leaves of infection index 1×1)+(the number of compound leaves of infection index 2×2)+(the number of compound leaves of infection index 3×3)+(the number of compound leaves of infection index 4×4/(the number of compound leaves examined×4))×100

[6] = Total of plots, g ai/10a: (a) 90, (b) 150, (c) 90, (h) 240
[7] = Total, one month after treatment, g ai/10a: (a) 90, (b) 150, (c) 90, (h) 240
[8] = plot I, g ai/10a: (a) 90, (b) 150, (c) 90, (h) 240
[9] = plot II, g ai/10a: (a) 90, (b) 150, (c) 90, (h) 240
[10] = plot III, g ai/10a: (a) 90, (b) 150, (c) 90, (h) 240

Cc1ccc(C(=O)NC[C@@H](NC(=O)OCC(F)(F)F)C(C)C)cc1 [Tolprocarb (a), tolprocarb]
phytotoxicity (Rice Streak Virus (RSV)): not observed
Number of CMV Infected Plants: Acute wilt [1]: 0
Number of CMV Infected Plants: Mosaic [1]: 3
Number of CMV Infected Plants: No Infection [1]: 2
phytotoxicity [1]: not observed
Control value [1]: 66.7
Disease Severity index [1]: 30.0
control effect on cucumber mosaic virus (CMV) (in words) [1]: excellent control effect
phytotoxicity [2]: not observed
control effect on the Chinese cabbage soft rot (in words) [2]: excellent control effect
Control value ([3]; 22.5 g ai/10a): 66.7
Disease Severity index ([3]; 22.5 g ai/10a): 33.3
Number of CMV Infected Leaves: Acute wilt ([3]; 22.5 g ai/10a): 1
Number of CMV Infected Leaves: Mosaic ([3]; 22.5 g ai/10a): 0
Number of CMV Infected Leaves: No Infection ([3]; 22.5 g ai/10a): 2
Control value ([3]; 45 g ai/10a): 16.7
Disease Severity index ([3]; 45 g ai/10a): 83.3
Number of CMV Infected Leaves: Acute wilt ([3]; 45 g ai/10a): 2
Number of CMV Infected Leaves: Mosaic ([3]; 45 g ai/10a): 1
Number of CMV Infected Leaves: No Infection ([3]; 45 g ai/10a): 0
Control value ([3]; 90 g ai/10a): 50.0
Disease Severity index ([3]; 90 g ai/10a): 50.0
Number of CMV Infected Leaves: Acute wilt ([3]; 90 g ai/10a): 1
Number of CMV Infected Leaves: Mosaic ([3]; 90 g ai/10a): 1
Number of CMV Infected Leaves: No Infection ([3]; 90 g ai/10a): 1
phytotoxicity [3]: not observed
control effect on cucumber mosaic virus (CMV) (in words) ([3]; treatment on 1 day before inoculation): excellent control effect
phytotoxicity [4]: not observed
control effect on tomato yellow leaf curl disease (TYLCV) (in words) [4]: excellent control effect

C=CCOC1=NS(=O)(=O)c2ccccc21 [Probenazole (h), probenazole]
Number of CMV Infected Plants: Acute wilt [1]: 0
Number of CMV Infected Plants: Mosaic [1]: 2
Number of CMV Infected Plants: No Infection [1]: 3
phytotoxicity [1]: not observed
Control value [1]: 77.8
Disease Severity index [1]: 20.0

CSC(=O)c1cccc2nnsc12 [Acibenzolar-S-methyl (i), acibenzolar S methyl, reference compound]
Control value ([3]; 250 g ai/10a): 50.0
Disease Severity index ([3]; 250 g ai/10a): 50.0
Number of CMV Infected Leaves: Acute wilt ([3]; 250 g ai/10a): 0
Number of CMV Infected Leaves: Mosaic ([3]; 250 g ai/10a): 3
Number of CMV Infected Leaves: No Infection ([3]; 250 g ai/10a): 0
phytotoxicity [3]: not observed

CN/C(=N/CC1CCOC1)N[N+](=O)[O-] (stereo not drawn) [Dinotefuran, dinotefuran]
control effect on the rice stripe blight (RSV) (in words) (Rice Streak Virus (RSV); nursery box application): effect of delaying the occurrence of the unshooting of head
phytotoxicity (Rice Streak Virus (RSV)): not observed
Number of CMV Infected Plants: Acute wilt [1]: 2
Number of CMV Infected Plants: Mosaic [1]: 2
Number of CMV Infected Plants: No Infection [1]: 1
phytotoxicity [1]: not observed
Control value [1]: 33.3
Disease Severity index [1]: 60.0
phytotoxicity [4]: not observed

O=C1CCc2cccc3c2N1CC3 [Pyroquilon (b), pyroquilon]
Number of CMV Infected Plants: Acute wilt [1]: 0
Number of CMV Infected Plants: Mosaic [1]: 4
Number of CMV Infected Plants: No Infection [1]: 1
phytotoxicity [1]: not observed
Control value [1]: 55.6
Disease Severity index [1]: 40.0
control effect on cucumber mosaic virus (CMV) (in words) [1]: excellent control effect
phytotoxicity [2]: not observed
control effect on the Chinese cabbage soft rot (in words) [2]: excellent control effect
phytotoxicity [4]: not observed
control effect on tomato yellow leaf curl disease (TYLCV) (in words) [4]: excellent control effect

CC(C)CC(C)c1sccc1NC(=O)c1cn(C)nc1C(F)(F)F (stereo not drawn) [penthiopyrad, reference compound]
phytotoxicity [2]: not observed

Cc1cccc2sc3nncn3c12 [Tricyclazole (c), tricyclazole]
Infection index 0 (number of leaves) [5, 6]: 8
Infection index 1 (number of leaves) [5, 6]: 8
Infection index 2 (number of leaves) [5, 6]: 2
Infection index 3 (number of leaves) [5, 6]: 0
Infection index 4 (number of leaves) [5, 6]: 0
Control value [5, 7]: 66.7
Disease Severity index [5, 7]: 16.7
Infection index 0 (number of leaves) [5, 8]: 0
Infection index 1 (number of leaves) [5, 8]: 5
Infection index 2 (number of leaves) [5, 8]: 1
Infection index 3 (number of leaves) [5, 8]: 0
Infection index 4 (number of leaves) [5, 8]: 0
Infection index 0 (number of leaves) [5, 9]: 5
Infection index 1 (number of leaves) [5, 9]: 1
Infection index 2 (number of leaves) [5, 9]: 0
Infection index 3 (number of leaves) [5, 9]: 0
Infection index 4 (number of leaves) [5, 9]: 0
Infection index 0 (number of leaves) [5, 10]: 3
Infection index 1 (number of leaves) [5, 10]: 2
Infection index 2 (number of leaves) [5, 10]: 1
Infection index 3 (number of leaves) [5, 10]: 0
Infection index 4 (number of leaves) [5, 10]: 0
phytotoxicity ([5]; tomato (cultivar: Ohgata-fukuju), g ai/10a: (a) 90, (b) 150, (c) 90, (h) 240): not observed
control effect on tomato powdery mildew (in words) ([5]; whole soil incorporation): excellent control effect

C[Si](C)(C)CC(O)(Cn1cncn1)c1ccc(F)cc1 (stereo not drawn) [simeconazole, reference compound]
phytotoxicity [2]: not observed

CN1COCN(Cc2cnc(Cl)s2)/C1=N\[N+](=O)[O-] [Thiamethoxam, thiamethoxam]
Number of CMV Infected Plants: Acute wilt [1]: 1
Number of CMV Infected Plants: Mosaic [1]: 3
Number of CMV Infected Plants: No Infection [1]: 1
phytotoxicity [1]: not observed
Control value [1]: 44.4
Disease Severity index [1]: 50.0
